These are literature values, as cited in patent US4829051A, “N-substituted derivatives of 1-desaminovasopressin” (Vega Laboratories, Inc., priority 1984, dated 1989).

The structures appear in SMILES notation.

The conditions of the series: in vivo.

On to `NC(=O)CC[C@@H]1NC(=O)[C@H](Cc2ccccc2)NC(=O)[C@H](Cc2ccc(O)cc2)NC(=O)CCSSC[C@@H](C(=O)N2CCC[C@H]2C(=O)N[C@H](CCCN=C(N)N)C(=O)NCC(N)=O)NC(=O)[C@H](CC(N)=O)NC1=O` [desmopressin], for which the Antidiuretic activity result was “enhanced and prolonged antidiuretic activity”; the Pressor activity result was “low pressor activity”.
